Columns and labels:
Format in all cases: in vivo, ICR mice
[1] = system: normal mice and mice with type 2 DM; experiment: Intraperitoneal glucose tolerance test (IPGTT)
Protocol: (§1) After three days of acclimatization, the mice had free access to a standard rodent chow (normal mice), a standard rodent chow after single […] streptozotocin (STZ) intraperitoneal injection (T1DM mice), and a fat-rich chow diet and fructose-sweetened water (T2DM mice) for 4 weeks. The induction of Type 1 DM was assessed and confirmed when the mice had plasma glucose levels ≧350 mgdL^−1, accompanied with polyuria, hyperphagia and decreased body weight. The induction Type 2 DM in the mice was assessed by measuring fasting plasma glucose levels and confirmed when plasma glucose level was ≧150 mgdL^−1 after the 4-week induction. The animals were assigned randomly into three groups, with seven animals in each group. In group I, the mice were treated with vehicle, 2% DMSO in normal saline, as the negative control. In group II, the mice were intraperitoneally treated with borapetoside A (0.1-10 mgkg^−1). In group Ill, the positive control, the mice received intraperitoneally metformin (300 mgkg^−1; Sigma Chemical Co., St. Louis, Mo., U.S.A.) or insulin (0.5 IUkg^−1; Insulin Actrapid® HM; Novo Nordisk, Denmark). In the acute study, mice under anesthesia received a single intraperitoneal administration of borapetoside A, negative control, or positive control. In the subacute study, mice received intraperitoneal administrations of borapetoside A, vehicle, or insulin twice a day for seven days.
Blood samples were collected from the orbital vascular plexus of the mice under anesthesia. Blood samples were then centrifuged at 13000 rpm for 5 min, and the plasma samples were collected and kept on ice prior to the assay. The plasma glucose concentration was measured by Glucose Kit Reagent (Biosystems S. A., Barcelona, Spain) following the manufacturer's instructions, and the insulin levels were estimated using mouse insulin ELISA kit (Mercodia AB, Uppsala, Sweden).
The mice were maintained under anesthesia throughout the procedure. Glucose (2.0 gkg^−1) was administered intraperitoneally. Blood samples were collected from the orbital vascular plexus at 0, 30, 60, 120 min. The concentrations of the plasma glucose were measured, and the values of AUC were calculated accordantly.

[2] = system: normal mice, mice with type 1 DM, mice with type 2 DM; experiment: Plasma glucose after single intraperitoneal borapetoside A (acute study); details: 60 min; for dose giving significant decrease of plasma glucose level: single i.p.
Protocol: The 4-week-old male ICR mice were purchased from the Animal Center of the College of Medicine, National Taiwan University (Taipei, Taiwan) with delicate humane care. This animal study was conducted by following the University ethical guidelines and the ‘Guide for the Care and Use of Laboratory Animals’ published by the US National Institutes of Health (NIH publication no. 85-23, revised 1996). The animal experiments were approved by the Institutional Animal Care and Use Committee (IACUC) of the National Taiwan University (IACUC No. 20110073). Animals were housed in a room at the constant temperature, 22±1° C., with 12 hours light and dark cycles.
as §1, with “In group Ill, the positive control, the mice received intraperitoneally metformin (300 mgkg^−1; Sigma Chemical Co., St. Louis, Mo., U.S.A.) or insulin (0.5 IUkg^−1; Insulin Actrapid® HM; Novo Nordisk, Denmark). In the acute study, mice under anesthesia received a single intraperitoneal administration of borapetoside A, negative control, or positive control. In the subacute study, mice received intraperitoneal administrations of borapetoside A, vehicle, or insulin twice a day for seven days.” left out
Blood samples were collected from the orbital vascular plexus of the mice under anesthesia. […] The plasma glucose concentration was measured by Glucose Kit Reagent (Biosystems S. A., Barcelona, Spain) following the manufacturer's instructions, and the insulin levels were estimated using mouse insulin ELISA kit (Mercodia AB, Uppsala, Sweden).

[3] = system: IR, Akt and GLUT2 in liver of T1DM mice; experiment: Western blot of IR-related signaling mediators in liver after 7-day borapetoside C, alone or with insulin
Protocol: T1DM mice were induced by a known method. In brief, an intraperitoneal injection of streptozotocin (STZ; Sigma Chemical Co.; St. Louis, Mo.) at 150 mg/kg was performed in mice that were fasted for 48 h. The induction of T1DM was assessed and confirmed when the mice had plasma glucose levels ≧350 mg/dL, accompanied with polyuria, hyperphagia and decreased body weight. The control mice group received an injection of vehicle and then carried out for 4 weeks. T2DM mice were induced by maintaining on a fat-rich chow diet and fructose-sweetened water for 4 weeks from the age of 4-5 weeks according to previous methods. The induction T2DM mice were assessed by measuring fasting plasma glucose levels and confirmed when plasma glucose level was ≧150 mg/dL after a 4-week induction.
After treatment, the mice were sacrificed by cervical dislocation under anesthesia.
The liver was immediately frozen in liquid nitrogen. The liver tissue was preserved at −80° C. before they were used for further assays.
Tissues were homogenized in T-PER® Tissue Protein Extraction Reagent (Pierce Biotechnology, Rockford, Ill.) with Halt™ Protease Inhibitor Single-Use Cocktail (Pierce Biotechnology, Rockford, Ill.). Liver homogenates were prepared by mechanical homogenization (Polytron PT3100, Luzernerstrasse, Switzerland). After centrifuging the homogenates at 10,000 g for 30 min, the supernatants were collected and frozen at −80° C. for further use. The protein concentrations were determined by using a BCA Protein Assay Kit (Pierce Biotechnology, Rockford, Ill.). For western blot analysis, about 60 μg of protein preparations were applied on 10% sodium dodecyl sulfate-polyacrylamide gel electrophoresis and then transferred to polyvinylidene difluoride membranes (Millipore, Billerica, Mass.). The membranes were blocked with 5% (w/v) non-fat dry milk in phosphate buffered saline (PBS) containing 0.1% Tween 20 (PBS-T). After blocking, the blotted membrane was incubated with anti-phospho-insulin receptor β (IRβ) (Tyr^1345), phospho-Akt (Ser^473) (Cell Signaling Technology, Beverly, Mass.), anti-IRβ, Akt, β-Actin (Santa Cruz Biotechnology, Santa Cruz, Calif.), and anti-GLUT2 antibodies (Abcam, Cambridge, UK) in presence of 3% bovine serum albumin (BSA) in PBS-T buffer. Following the incubation, the membranes were washed 3 times with PBS-T for 15 min each and then incubated with the appropriate peroxidase-conjugated secondary antibodies (Santa Cruz. Biotechnology, USA) in PBS-T. After removal of the secondary antibody, blots were washed and developed using the enhanced chemiluminescenece (ECL) western blotting system (Millipore, Billerica, Mass.). The density of the protein bands were quantified using ImageQuant.

[4] = borapetoside C 0.1 mg/kg twice daily, alone or with insulin 1.0 IU/kg twice daily
[5] = borapetoside C 5.0 mg/kg vs insulin 0.5 IU/kg twice daily

SMILES | increase of plasma glucose level at 30 min in IPGTT, compared to the vehicle group ([1]; normal and type 2 DM mice, borapetoside A 0.1, 1 and 10 mgkg^−1, metformin) | area under the curve (AUC) in IPGTT ([1]; normal mice, 0.1 mgkg^−1) | area under the curve (AUC) in IPGTT ([1]; normal mice, 1 mgkg^−1) | area under the curve (AUC) in IPGTT ([1]; normal mice, 10 mgkg^−1) | area under the curve (AUC) in IPGTT ([1]; type 2 DM bearing mice, 0.1 mgkg^−1) | area under the curve (AUC) in IPGTT ([1]; type 2 DM bearing mice, 1 mgkg^−1) | area under the curve (AUC) in IPGTT ([1]; type 2 DM bearing mice, 10 mgkg^−1) | dose giving significant decrease of plasma glucose level ([2]; mice with type 2 DM) | dose giving significant decrease of plasma glucose level ([2]; normal mice) | plasma glucose level ([2]; normal, type 1 DM and type 2 DM mice, 0.1-10.0 mgkg^−1 single i.p.) | expression of GLUT2 in liver ([3]; 5.0 mg/kg twice daily) | level of phosphorylated Akt in liver ([3]; 5.0 mg/kg twice daily) | level of phosphorylated IR in liver ([3]; 5.0 mg/kg twice daily) | GLUT2 in liver vs vehicle-treated [3, 4] | serine phosphorylation of Akt in liver vs vehicle-treated [3, 4] | tyrosine phosphorylation of IR in liver vs vehicle-treated [3, 4] | phosphorylation of Akt and GLUT2 expression compared with the effect of insulin [3, 5] | phosphorylation of IR compared with the effect of insulin [3, 5]
C[C@@]12C[C@@H](c3ccoc3)OC(=O)[C@@H]1C[C@@H]1OC(=O)[C@@]3(O)[C@@H](O[C@@H]4O[C@H](CO)[C@@H](O)[C@H](O)[C@H]4O)CC[C@@H]2[C@@]13C [Borapetoside A, borapetoside A] | significantly suppressed | 78.8±3.0 % of vehicle control | 69.9±7.1 % of vehicle control | 68.9±3.5 % of vehicle control | 74.9±4.5 % of vehicle control | 71.1±3.2 % of vehicle control | 68.9±1.9 % of vehicle control | higher than 0.3 mgkg^−1 | ≥ 1 mgkg^−1 | lowered the plasma glucose level | – | – | – | – | – | – | – | –
COC(=O)C1=CCC[C@H]2[C@]3(C)C[C@@H](c4ccoc4)OC(=O)[C@@H]3C[C@@H](O[C@@H]3O[C@H](CO)[C@@H](O)[C@H](O)[C@H]3O)[C@@]12C [Borapetoside C, borapetoside C] | – | – | – | – | – | – | – | – | – | – | increased | increased | increased | not significantly increased | not significantly increased | not significantly increased | less phosphorylation of Akt and GLUT2 expression | more phosphorylation of IR

— patent US20150265682A1, “THERAPEUTIC METHODS AND COMPOSITIONS FOR TREATING DIABETES” (Orient Europharma Co., Ltd., priority 2014, published 2015)
